Measured values from patent US20230092890A1, “1, 3, 4-Oxadiazole derivative compounds as histone deacetylase 6 inhibitor, and the pharmaceutical composition comprising the same” (Chong Kun Dang Pharmaceutical Corp., priority 2019, published 2023).

Experiments:
[1] = target: T1, HDAC1 (Homo sapiens, UniProt Q13547); assay: HDAC enzyme activity inhibition (in vitro), HDAC1 Fluorimetric Drug Discovery Assay Kit; assay type: biochemical; details: samples at 100, 1000 and 10000 nM; 37° C. 60 minutes; fluorescence Ex 390, Em 460; read-out: HDAC1 IC50
T1 construct: purchased Enzolifesciences BML-AK511
T1 sequence (Q13547 whole entry): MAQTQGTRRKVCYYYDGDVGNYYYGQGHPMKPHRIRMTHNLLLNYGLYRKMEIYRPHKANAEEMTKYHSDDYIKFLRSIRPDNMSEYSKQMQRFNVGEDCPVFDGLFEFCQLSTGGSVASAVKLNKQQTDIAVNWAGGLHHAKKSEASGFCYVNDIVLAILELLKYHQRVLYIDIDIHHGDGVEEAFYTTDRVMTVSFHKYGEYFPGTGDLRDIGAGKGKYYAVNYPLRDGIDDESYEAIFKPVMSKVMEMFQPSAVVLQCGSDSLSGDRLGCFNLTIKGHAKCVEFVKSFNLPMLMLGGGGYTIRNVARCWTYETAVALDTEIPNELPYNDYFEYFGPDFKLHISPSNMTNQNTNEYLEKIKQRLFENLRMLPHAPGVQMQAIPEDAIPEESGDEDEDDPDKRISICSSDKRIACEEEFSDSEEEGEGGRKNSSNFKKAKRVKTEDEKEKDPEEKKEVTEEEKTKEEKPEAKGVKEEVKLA
How it was run: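 Each sample reacted with enzyme for 60 min at 37° C before a 30-min developer step at the same temperature. HDAC1 doses spanned 100 to 10000 nM. Fluorescent signal was read at Ex 390/Em 460.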

[2] = target: T2, HDAC6 human recombinant (Homo sapiens, UniProt Q9UBN7); assay: HDAC enzyme activity inhibition (in vitro), HDAC6 assay; assay type: biochemical; details: samples at 0.1, 1, 10, 100 and 1000 nM; 37° C. 60 minutes; fluorescence Ex 390, Em 460; read-out: HDAC6 IC50
T2 construct: purchased Calbiochem 382180
T2 sequence (Q9UBN7 1-1215): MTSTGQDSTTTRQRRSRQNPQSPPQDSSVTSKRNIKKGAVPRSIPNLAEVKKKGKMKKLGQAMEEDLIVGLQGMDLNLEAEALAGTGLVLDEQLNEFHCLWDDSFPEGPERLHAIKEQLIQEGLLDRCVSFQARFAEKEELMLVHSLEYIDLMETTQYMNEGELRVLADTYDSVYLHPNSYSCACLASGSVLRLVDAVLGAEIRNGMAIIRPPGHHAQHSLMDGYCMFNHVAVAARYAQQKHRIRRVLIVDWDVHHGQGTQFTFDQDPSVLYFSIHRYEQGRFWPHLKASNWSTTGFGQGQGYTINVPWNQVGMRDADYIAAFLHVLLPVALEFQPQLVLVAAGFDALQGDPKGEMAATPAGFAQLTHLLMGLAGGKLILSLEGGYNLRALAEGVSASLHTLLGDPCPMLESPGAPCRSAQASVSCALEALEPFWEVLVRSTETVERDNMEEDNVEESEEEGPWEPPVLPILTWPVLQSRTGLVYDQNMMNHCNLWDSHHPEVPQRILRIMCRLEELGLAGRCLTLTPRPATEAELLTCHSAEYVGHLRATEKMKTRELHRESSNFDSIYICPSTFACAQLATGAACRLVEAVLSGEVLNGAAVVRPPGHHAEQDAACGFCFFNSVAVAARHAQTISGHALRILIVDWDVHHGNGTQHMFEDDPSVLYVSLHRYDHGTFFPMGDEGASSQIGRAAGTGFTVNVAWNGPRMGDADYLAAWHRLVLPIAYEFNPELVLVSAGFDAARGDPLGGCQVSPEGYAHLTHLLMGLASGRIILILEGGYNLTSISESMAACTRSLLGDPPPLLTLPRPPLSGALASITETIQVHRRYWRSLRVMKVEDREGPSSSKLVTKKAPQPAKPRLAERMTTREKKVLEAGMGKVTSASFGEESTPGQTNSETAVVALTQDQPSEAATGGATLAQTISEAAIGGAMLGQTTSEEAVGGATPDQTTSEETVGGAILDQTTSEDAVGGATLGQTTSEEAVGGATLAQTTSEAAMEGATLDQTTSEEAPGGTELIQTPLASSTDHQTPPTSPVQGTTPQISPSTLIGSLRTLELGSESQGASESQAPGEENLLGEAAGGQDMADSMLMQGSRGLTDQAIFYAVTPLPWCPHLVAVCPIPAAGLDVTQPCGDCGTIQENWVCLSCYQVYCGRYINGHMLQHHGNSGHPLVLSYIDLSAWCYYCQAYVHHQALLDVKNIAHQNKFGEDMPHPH
How it was run: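 Fluorescence (Ex 390, Em 460) read after a 37° C, 60 min enzyme reaction and a further 30 min developer step at 37° C. Uses recombinant human HDAC6; HDAC1 arm dosed at 100, 1000, 10000 nM.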

IC50 [1] [nM] | IC50 [2] [nM] | SMILES
> 10000 | 35 | O=c1n(Cc2ccc(-c3nnc(C(F)F)o3)cn2)c2cc(F)c(N3CCN(Cc4cn[nH]c4)CC3)cc2n1C1COC1 [Compound 323, 5-(4-((1H-pyrazole-4-yl)methyl)piperazine-1-yl)-1-((5-(5-(difluoromethyl)-1,3,4-oxadiazole-2-yl)pyridine-2-yl)methyl)-6-fluoro-3-(oxetan-3-yl)-1,3-dihydro-2H-benzo[d]imidazole-2-one]
> 10000 | 42 | O=c1n(Cc2ccc(-c3nnc(C(F)F)o3)cn2)c2cc(F)c(N3CCN(Cc4cccnc4)CC3)cc2n1C1COC1 [Compound 324, 1-((5-(5-(difluoromethyl)-1,3,4-oxadiazole-2-yl)pyridine-2-yl)methyl)-6-fluoro-3-(oxetan-3-yl)-5-(4-(pyridine-3-ylmethyl)piperazine-1-yl)-1,3-dihydro-2H-benzo[d]imidazole-2-one]
> 10000 | 19 | CN1CCC(n2c(=O)n(Cc3ccc(-c4nnc(C(F)F)o4)cn3)c3ccc(-c4ccoc4)cc32)CC1 [Compound 137, 1-((5-(5-(difluoromethyl)-1,3,4-oxadiazole-2-yl)pyridine-2-yl)methyl)-5-(furan-3-yl)-3-(1-methylpiperidine-4-yl)-1,3-dihydro-2H-benzo[d]imidazole-2-one]
> 10000 | 49 | CN1CCC(n2c(=O)n(Cc3ccc(-c4nnc(C(F)F)o4)cn3)c3cc(F)c(F)cc32)CC1 [Compound 83, 1-((5-(5-(difluoromethyl)-1,3,4-oxadiazole-2-yl)pyridine-2-yl)methyl)-5,6-difluoro-3-(1-methylpiperidine-4-yl)-1,3-dihydro-2H-benzo[d]imidazole-2-one]
> 10000 | 178 | CN1CCC(n2c(=O)n(Cc3ccc(-c4nnc(C(F)F)o4)cn3)c3ccccc32)CC1 [Compound 4, 1-((5-(5-(difluoromethyl)-1,3,4-oxadiazole-2-yl)pyridine-2-yl)methyl)-3-(1-methylpiperidine-4-yl)-1,3-dihydro-2H-benzo[d]imidazole-2-one]
> 10000 | 174 | CN1CCC(n2c(=O)n(Cc3ccc(-c4nnc(C(F)F)o4)cn3)c3ncccc32)CC1 [Compound 107, 3-((5-(5-(difluoromethyl)-1,3,4-oxadiazole-2-yl)pyridine-2-yl)methyl)-1-(1-methylpiperidine-4-yl)-1,3-dihydro-2H-imidazo[4,5-b]pyridine-2-one]
> 10000 | 36 | O=c1n(Cc2ccc(-c3nnc(C(F)F)o3)cn2)c2cc(F)c(F)cc2n1C1CCN(C2COC2)CC1 [Compound 84, 1-((5-(5-(difluoromethyl)-1,3,4-oxadiazole-2-yl)pyridine-2-yl)methyl)-5,6-difluoro-3-(1-(oxetan-3-yl)piperidine-4-yl)-1,3-dihydro-2H-benzo[d]imidazole-2-one]
> 10000 | 70 | CS(=O)(=O)N1CCC(n2c(=O)n(Cc3ccc(-c4nnc(C(F)F)o4)cc3F)c3ccc(Cl)cc32)CC1 [Compound 201, 5-chloro-1-(4-(5-(difluoromethyl)-1,3,4-oxadiazole-2-yl)-2-fluorobenzyl)-3-(1-(methylsulfonyl)piperidine-4-yl)-1,3-dihydro-2H-benzo[d]imidazole-2-one]

The next lines start with the compound.

SMILES | IC50 [1] [nM] | IC50 [2] [nM]
Cn1c(=O)n(Cc2ccc(-c3nnc(C(F)F)o3)cc2)c2cc(F)ccc21 [Compound 144, 3-(4-(5-(difluoromethyl)-1,3,4-oxadiazole-2-yl)benzyl)-5-fluoro-1-methyl-1,3-dihydro-2H-benzo[d]imidazole-2-one] | > 10000 | 77
CC(=O)N1CCC(n2c(=O)n(Cc3ccc(-c4nnc(C(F)F)o4)cn3)c3ccc(F)cc32)CC1 [Compound 42, 3-(1-acetylpiperidine-4-yl)-1-((5-(5-(difluoromethyl)-1,3,4-oxadiazole-2-yl)pyridine-2-yl)methyl)-5-fluoro-1,3-dihydro-2H-benzo[d]imidazole-2-one] | > 10000 | 106
CC(C)N1CCC(n2c(=O)n(Cc3ccc(-c4nnc(C(F)F)o4)cc3F)c3cc(F)ccc32)CC1 [Compound 70, 3-(4-(5-(difluoromethyl)-1,3,4-oxadiazole-2-yl)-2-fluorobenzyl)-5-fluoro-1-(1-isopropylpiperidine-4-yl)-1,3-dihydro-2H-benzo[d]imidazole-2-one] | > 10000 | 31
O=c1n(Cc2ccc(-c3nnc(C(F)F)o3)cn2)c2ccccc2n1C1CCN(C2COC2)CC1 [Compound 78, 1-((5-(5-(difluoromethyl)-1,3,4-oxadiazole-2-yl)pyridine-2-yl)methyl)-3-(1-(oxetan-3-yl)piperidine-4-yl)-1,3-dihydro-2H-benzo[d]imidazole-2-one] | > 10000 | 79
CN1CCC(n2c(=O)n(Cc3ccc(-c4nnc(C(F)F)o4)cc3)c3ccc(Cl)cc32)CC1 [Compound 99, 5-chloro-1-(4-(5-(difluoromethyl)-1,3,4-oxadiazole-2-yl)benzyl)-3-(1-methylpiperidine-4-yl)-1,3-dihydro-2H-benzo[d]imidazole-2-one] | > 10000 | 37
O=c1oc2cc(-c3cccc4[nH]ccc34)ccc2n1Cc1ccc(-c2nnc(C(F)F)o2)cn1 [Compound 306, 3-((5-(5-(difluoromethyl)-1,3,4-oxadiazole-2-yl)pyridine-2-yl)methyl)-6-(1H-indole-4-yl)benzo[d]oxazole-2(3H)-one] | > 10000 | 34
CN1CC(n2c(=O)n(Cc3ccc(-c4nnc(C(F)F)o4)cn3)c3cc(F)c(-c4ccncc4)cc32)C1 [Compound 259, 1-((5-(5-(difluoromethyl)-1,3,4-oxadiazole-2-yl)pyridine-2-yl)methyl)-6-fluoro-3-(1-methylazetidine-3-yl)-5-(pyridine-4-yl)-1,3-dihydro-2H-benzo[d]imidazole-2-one] | > 10000 | 14
CS(=O)(=O)N1CCC(n2c(=O)n(Cc3ccc(-c4nnc(C(F)F)o4)cc3F)c3ccccc32)CC1 [Compound 18, 1-(4-(5-(difluoromethyl)-1,3,4-oxadiazole-2-yl)-2-fluorobenzyl)-3-(1-(methylsulfonyl)piperidine-4-yl)-1,3-dihydro-2H-benzo[d]imidazole-2-one] | > 10000 | 267
Cn1c(=O)n(Cc2ccc(-c3nnc(C(F)F)o3)cn2)c2ccc(-c3cccc4[nH]ccc34)cc21 [Compound 212, 1-((5-(5-(difluoromethyl)-1,3,4-oxadiazole-2-yl)pyridine-2-yl)methyl)-5-(1H-indole-4-yl)-3-methyl-1,3-dihydro-2H-benzo[d]imidazole-2-one] | > 10000 | 10
CN1CCC(n2c(=O)n(Cc3ccc(-c4nnc(C(F)F)o4)cc3F)c3cc(C(F)(F)F)ccc32)CC1 [Compound 91] | > 10000 | 58
CC(=O)N1CCC(n2c(=O)n(Cc3ccc(-c4nnc(C(F)F)o4)cn3)c3ncccc32)CC1 [Compound 184, 1-(1-acetylpiperidine-4-yl)-3-((5-(5-(difluoromethyl)-1,3,4-oxadiazole-2-yl)pyridine-2-yl)methyl)-1,3-dihydro-2H-imidazo[4,5-b]pyridine-2-one] | > 10000 | 137
Cn1c(=O)n(Cc2ccc(-c3nnc(C(F)F)o3)cn2)c2cc(F)c(-c3cccc4[nH]ccc34)cc21 [Compound 224, 1-((5-(5-(difluoromethyl)-1,3,4-oxadiazole-2-yl)pyridine-2-yl)methyl)-6-fluoro-5-(1H-indole-4-yl)-3-methyl-1,3-dihydro-2H-benzo[d]imidazole-2-one] | > 10000 | 8
